# Measured values: patent US12091425B2 (AMGEN INC., priority 2016, dated 2024)
# Experiments:
# [1] = target: T1, Mcl-1/Bim interaction, recombinant human Mcl-1 (171-327) (Homo sapiens, UniProt Q07820); assay: Cell free Mcl-1: Bim Affinity Assay (Mcl-1 HTRF); format: binding
# T1 construct: made in house
# Outline: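 Biotin-Bim(51-76) peptide, TR-FRET readout, overnight incubation; IC50 from duplicate competition curves, 4-parameter fit.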
# [2] = system: OPM-2 human multiple myeloma cell line; assay: Cell Viability Assay (OPM-2 10 FBS); format: cell-based; conditions: OPM-2 cells, CellTiter-Glo
# Outline: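 OPM-2 myeloma cells, 3000/well in medium with 10% FBS, exposed to serially diluted compounds for 16 h at 37° C./5% CO2. Viability read by CellTiter-Glo luminescence; IC50 from 4-parameter logistic fit.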
# [3] = TR-FRET, 0.1 nM Mcl-1 (171-327), 0.05 nM biotin-Bim (51-76)
# [4] = cell free Mcl-1:Bim TR-FRET, recombinant human Mcl-1 (171-327)
# [5] = Homo sapiens, OPM-2, 16 h, 16 h
# T1 sequence (Q07820 171-327): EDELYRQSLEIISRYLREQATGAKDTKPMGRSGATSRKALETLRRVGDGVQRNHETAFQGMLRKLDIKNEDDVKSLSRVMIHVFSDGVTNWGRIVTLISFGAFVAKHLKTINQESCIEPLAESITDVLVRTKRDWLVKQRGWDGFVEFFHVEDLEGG
Molecule,"IC50 [1, 3]",IC50 ([2]; 16 h),"IC50 [1, 4]","IC50 [2, 5]",other results
"CO[C@H]1/C=C/CC[C@@H](CCS(=O)(=O)C(C)(C)C)S(=O)(=O)NC(=O)c2ccc3c(c2)N(C[C@@H]2CC[C@H]21)C[C@@]1(CCCc2cc(Cl)ccc21)CO3 (single isomer, unassigned) [Example 156]",0.831 nM,266 nM,,,
"C[C@@H]1[C@@H](C)/C=C/[C@H](O)[C@@H]2CC[C@H]2CN2C[C@@]3(CCCc4cc(Cl)ccc43)COc3ccc(cc32)C(=O)NS1(=O)=O (single isomer, unassigned) [Example 166]",0.418 nM,2070 nM,,,
"(1S,3′R,6′R,7′S,11′S,13′R)-6-chloro-13′-methyl-3,4-dihydro-2H,17′H-spiro[naphthalene-1,24′-[8,12,22]trioxa[15]thia[1,16]diazapentacyclo[16.7.2.1^7,11.0^36.0^21,26]octacosa[18,20,26]trien]-17′-one 15′,15′-dioxide [Example 920]",,4350 nM,1.86 nM,,
COC(C)COC1C=CCC(C)C(C)S(=O)(=O)NC(=O)c2ccc3c(c2)N(CC2CCC21)CC1(CCCc2cc(Cl)ccc21)CO3 (mixture of isomers) [Example 519],,339 nM,1.44 nM,,
"O=C1NS(=O)(=O)[C@@H]2CCCC[C@H]2CCC[C@H](O)[C@@H]2CC[C@H]2CN2C[C@@]3(CCCc4cc(Cl)ccc43)COc3ccc1cc32 (single isomer, unassigned) [Example 333]",0.96 nM,3450 nM,,,
"COC[C@@H](O)C[C@@H]1[C@@H](C)C/C=C/[C@H](OC)[C@@H]2CC[C@H]2CN2C[C@@]3(CCCc4cc(Cl)ccc43)COc3ccc(cc32)C(=O)NS1(=O)=O (single isomer, unassigned) [Example 679]",,205 nM,0.429 nM,,
"CO[C@H]1/C=C/CC[C@@H](CC(C)(C)OC)S(=O)(=O)NC(=O)c2ccc3c(c2)N(C[C@@H]2CC[C@H]21)C[C@@]1(CCCc2cc(Cl)ccc21)CO3 (single isomer, unassigned) [Example 615]",,643 nM,0.696 nM,,
"COC[C@@H]1[C@@H](C)C/C=C/[C@H](O)[C@@H]2CC[C@H]2CN2C[C@@]3(CCCc4cc(Cl)ccc43)COc3ccc(cc32)C(=O)NS1(=O)=O (single isomer, unassigned) [Example 455]",0.166 nM,,,71.6 nM,
C[C@@H]1[C@@H](C)C/C=C/[C@H](OCCO[C@H]2CCCCO2)[C@@H]2CC[C@H]2CN2C[C@@]3(CCCc4cc(Cl)ccc43)COc3ccc(cc32)C(=O)NS1(=O)=O (mixture of isomers) [Example 517],,,1.86 nM,467 nM,
"C[C@@H]1CC(=O)NC[C@@H]2CC[C@H]2CN2C[C@@]3(CCCc4cc(Cl)ccc43)COc3ccc(cc32)C(=O)NS(=O)(=O)[C@@H]1C (single isomer, unassigned) [Example 151]",3.56 nM,9170 nM,,,
"COCCO[C@H]1/C=C/C[C@H](C)N(CCOC)S(=O)(=O)NC(=O)c2ccc3c(c2)N(C[C@@H]2CC[C@H]21)C[C@@]1(CCCc2cc(Cl)ccc21)CO3 (single isomer, unassigned) [Example 69]",0.529 nM,,,276 nM,
"CC(=O)N1CCN(CCO[C@H]2/C=C/C[C@H](C)[C@@H](C)S(=O)(=O)NC(=O)c3ccc4c(c3)N(C[C@@H]3CC[C@H]32)C[C@@]2(CCCc3cc(Cl)ccc32)CO4)CC1 [Example 733, (1S,3′R,6′R,7′S,8′E,11′S,12′R)-7′-(2-(4-acetyl-1-piperazinyl)ethoxy)-6-chloro-11′,12′-dimethyl-3,4-dihydro-2H,15′H-spiro[naphthalene-1,22′-[20]oxa[13]thia[1,14]diazatetracyclo [14.7.2.0^3,6.0^19,24]pentacosa[8,16,18,24]tetraen]-15′-one-13′, 13′-dioxide]",,,0.284 nM,69.7 nM,
"C[C@@H]1/C=C/[C@@H](O)[C@@H]2CC[C@H]2CN2C[C@@]3(CCCc4cc(Cl)ccc43)COc3ccc(cc32)C(=O)NS(=O)(=O)C[C@@H]1C (single isomer, unassigned) [Example 1062]",7.88 nM,,,,IC50 ([2]; 16 h incubation): 12600 nM
"O=C(O)CO[C@@H]1/C=C/CCCS(=O)(=O)NC(=O)c2ccc3c(c2)N(C[C@@H]2CC[C@H]21)C[C@@]1(CCCc2cc(Cl)ccc21)CO3 [Example 218, (((1S,3′R,6′R,7′R,8′E)-6-chloro-13′,13′-dioxido-15′-oxo-3,4-dihydro-2H-spiro[naphthalene-1,22′-[20]oxa[13]thia[1,14]diazatetracyclo[14.7.2.0^3,6.0^19,24]pentacosa [8,16,18,24]tetraen]-7′-yl)oxy)acetic acid]",0.216 nM,,,3670 nM,
"CC1CC(C)C(C)S(=O)(=O)NC(=O)c2ccc3c(c2)N(CC2CCC2C(O)C1)CC1(CCCc2cc(Cl)ccc21)CO3 (single isomer, unassigned) [Example 259]",44.4 nM,,,23000 nM,
"O=C1NS(=O)(=O)C(c2ccccc2)CC/C=C/[C@H](O)[C@@H]2CC[C@H]2CN2C[C@@]3(CCCc4cc(Cl)ccc43)COc3ccc1cc32 (single isomer, unassigned) [Example 674]",,1090 nM,8.2 nM,,
"COCCO[C@H]1/C=C/C[C@H](C)[C@@H](C)S(=O)(=O)NC(=O)c2ccc3c(c2)N(C[C@@H]2CC[C@H]21)C[C@@]1(CCCc2cc(Cl)ccc21)CO3 [Example 719, (1S,3′R,6′R,7′S,8′E,11′S,12′R)-6-chloro-7′-(2-methoxyethoxy)-11′,12′-dimethyl-3,4-dihydro-2H,15′H-spiro[naphthalene-1,22′-[20]oxa[13]thia[1,14]diazatetracyclo[14.7.2.0^3,6.0^19,24]pentacosa[8,16,18,24]tetraen]-15′-one-13′, 13′-dioxide]",,,0.366 nM,117 nM,
"COC1CC=CC(O)C2CCC2CN2CC3(CCCc4cc(Cl)ccc43)COc3ccc(cc32)C(=O)NS(=O)(=O)C1CC1CCCO1 (single isomer, unassigned) [Example 638]",,,0.243 nM,131 nM,
"CO[C@H]1/C=C/[C@H](O)[C@@H]2CC[C@H]2CN2C[C@@]3(CCCc4cc(Cl)ccc43)COc3ccc(cc32)C(=O)NS(=O)(=O)[C@@H](C)C1 (single isomer, unassigned) [Example 488]",,12900 nM,5.21 nM,,
"C[C@H](O)C[C@@H]1CC/C=C/[C@H](O)[C@@H]2CC[C@H]2CN2C[C@@]3(CCCc4cc(Cl)ccc43)COc3ccc(cc32)C(=O)NS1(=O)=O (single isomer, unassigned) [Example 546]",,854 nM,0.28 nM,,
"CO[C@@H]1C[C@H]2C/C=C/[C@H](OC)[C@@H]3CC[C@H]3CN3C[C@@]4(CCCc5cc(Cl)ccc54)COc4ccc(cc43)C(=O)NS(=O)(=O)[C@@H]2C1 (single isomer, unassigned) [Example 337]",0.705 nM,383 nM,,,
"CC1CC=CC(O)C2CCC2CN2CC3(CCCc4cc(Cl)ccc43)COc3ccc(cc32)C(=O)NS(=O)(=O)C1CC(F)(F)F (single isomer, unassigned) [Example 663]",,,0.312 nM,3110 nM,
"CC[C@@H]1C[C@@H](C)/C=C/[C@H](OCCN2CCOCC2)[C@@H]2CC[C@H]2CN2C[C@@]3(CCCc4cc(Cl)ccc43)COc3ccc(cc32)C(=O)NS1(=O)=O [Example 1026, (1S,3′R,6′R,7′S,8′E,10′R,12′R)-6-chloro-12′-ethyl-10′-methyl-7′-(2-(4-morpholinyl)ethoxy)-3,4-dihydro-2H,15′H-spiro[naphthalene-1,22′-[20]oxa[13]thia[1,14]diazatetracyclo[14.7.2.0^3,6.0^19,24]pentacosa [8,16,18,24]tetraen]-15′-one 13′,13′-dioxide]",1.12 nM,,,,"IC50 ([2]; Homo sapiens, OPM-2, 16 h, 16 h incubation): 288 nM"
COC(=O)CCC1(C)CCC=CC(O)C2CCC2CN2CC3(CCCc4cc(Cl)ccc43)COc3ccc(cc32)C(=O)NS1(=O)=O (stereo not drawn) [Example 560],,,4.83 nM,12200 nM,
"COC(=O)CC[C@]1(C)CC/C=C\[C@H](O)[C@@H]2CC[C@H]2CN2C[C@@]3(CCCc4cc(Cl)ccc43)COc3ccc(cc32)C(=O)NS1(=O)=O (single isomer, unassigned) [Example 562]",,986 nM,1.12 nM,,
"C[C@@H]1CC/C=C/[C@H](OCc2cnnn2C)[C@@H]2CC[C@H]2CN2C[C@@]3(CCCc4cc(Cl)ccc43)COc3ccc(cc32)C(=O)NS1(=O)=O [Example 416, (1S,3′R,6′R,7′S,8′E,12′R)-6-chloro-12′-methyl-7′-((1-methyl-1H-1,2,3-triazol-5-yl)methoxy)-3,4-dihydro-2H,15′H-spiro[naphthalene-1,22′-[20]oxa[13]thia[1,14]diazatetracyclo[14.7.2.0^3,6.0^19,24]pentacosa [8,16,18,24]tetraen]-15′-one 13′,13′-dioxide]",0.377 nM,,,1060 nM,
"COC[C@H](O)CN1[C@@H](C)C/C=C/[C@H](O)[C@@H]2CC[C@H]2CN2C[C@@]3(CCCc4cc(Cl)ccc43)COc3ccc(cc32)C(=O)NS1(=O)=O [Example 687, (1S,3′R,6′R,7′S,8′E,11′S)-6-chloro-7′-hydroxy-12′-((2R)-2-hydroxy-3-methoxypropyl)-11′-methyl-3,4-dihydro-2H,15′H-spiro[naphthalene-1,22′-[20]oxa[13]thia[1,12,14]triazatetracyclo[14.7.2.0^3,6.0^19,24]pentacosa[8,16,18,24]tetraen]-15′-one 13′,13′-dioxide]",,,0.207 nM,148 nM,
